Experimental data: patent US20180185520A1, “COLLAGEN IMAGING COMPOSTIONS” (Collagen Medical, LLC, priority 2015, published 2018)

Experiments:
[1] = molecular target: T1, rat collagen (acid soluble, type I, rat tail) (Rattus norvegicus, UniProt P02454+P02466); test: Collagen binding assay, dried rat collagen in microtiter plate; conditions: 37° C., pH 7.4
T1 construct: purchased Millipore Inc 08-115; host or cells: rat tail
Description: 10 ml of a 3.79 mg/mL solution of rat collagen (acid soluble, type I, rat tail, Millipore Inc, cat#08-115) is dialyzed against 10 mM Phosphate (NaH2PO4), pH 4.2 at 4° C. with three changes of the dialysis buffer.
Ice-cold 1×PBS pH 10.8 is added to the collagen solution for a final collagen concentration of 10 μM, pH 7.4. Collagen solutions are gelled and dried down in the wells of a 96 well microtiter plate (Corning Polystyrene Flat Bottom, cat#3641). 70 μl of 10 μM collagen is aliquoted into each well in every other lane in the plate (48 wells) and the plate is incubated at 37° C. for 18 hours to form a gel and evaporate to dryness. […] The final well content of gelled collagen is measured by determination of hydroxyproline and is around 180 μg/ml.
a serial dilution of 0.2 μM-30 μM of the peptide chelate is prepared in PBS, pH 7.4 ([…], of solution for each concentration). […] The concentration of free, unbound compound in the sample supernatants and the concentration of compound in the reserved (total) sample are determined by ICP-MS (Agilent 7500, gadolinium concentration). The concentration of compound bound to collagen is determined as [bound]=[total]−[unbound].
The binding of compounds to human, rat and dog collagen (5 μM) was measured over the concentration range 0.2-5 μM of Comp ID Nos.: 1-4. […]

liver fibrosis [2] = test: Detection of liver fibrosis by MRI, mouse CCl4 model; type: in vivo, C57BL/6 male mice; conditions: 10 μmol/kg i.v., out to 45 minutes, 7T
Description: Strain C57BL/6 male mice at approximately 3 weeks of age were purchased from Jackson Laboratory (Bar Harbor, Me.). All mice were randomly assigned to two groups: a control group (n=3) and a CCl4 group (n=8). Mice were treated three times a week for 10 weeks with either 0.04 mL of a 40 percent solution of CCl4 (Sigma, St. Louis, Mo.) in olive oil or with vehicle (olive oil only) by oral gavage. Animals from both models were imaged one week after the last injection. Mice were imaged on a 7T pre-clinical […] scanner (Bruker Biospin, Billerica, Mass.). Mice were imaged before and immediately after a 10 μmol/kg intravenous injection of COMPOUND ID NO. 1 and imaging was repeated out to 45 minutes post-injection. Following imaging, animals were sacrificed 50 min post COMPOUND ID NO. 1 injection and sections of each of the liver lobes were taken for gadolinium analysis by ICP-MS, hydroxyproline (Hyp) determination, and histology (Sirius Red staining). From the MRI data, the contrast to noise ratio (CNR, where CNR=(signal liver-signal muscle)/noise) was calculated for the liver before and at repeated time points after 10 μmol/kg injection of the COMPOUND ID NO. 1. After probe COMPOUND ID NO. […] Plots of CNR as a function of time post injection were made and the area under this CNR vs time curve was calculated. […] 1 in liver as assessed by gadolinium measurement (R^2=0.83). […]

liver fibrosis [3] = test: Detection of liver fibrosis by MRI, rat bile duct ligation model; type: in vivo, male CD rats; conditions: 10 μmol/kg i.v., 30 minutes, 1.5 tesla
Excerpt: Liver fibrosis was induced in male CD rats (n=8) by ligation of the common bile duct (Charles River Labs, Wilmington, Mass.). Control animals (n=12) underwent a control procedure. Rats were imaged 19 days following ligation. Rats were imaged on a 1.5-tesla clinical MRI scanner (Siemens Healthcare, Malvern, Pa.) using a home-built, transmit-receive solenoid coil. Animals were anesthetized with 1-2% isoflurane and respiration rate was monitored with a small animal physiological monitoring system (SA Instruments, Inc., Stony Brook, N.Y.). Respiratory-gated, 3D Inversion Recovery (IR) Fast Low Angle Shot (FLASH) images were acquired prior to and 30 minutes following intravenous administration of 10 μmol/kg COMPOUND ID NO. 1. A non-selective inversion pulse was used and images were acquired with inversion recovery times of 50, 100, 200, 250, 300, 400 and 1000 ms. Image acquisition parameters consisted of an echo time of TE=2.44 ms, field-of-view FOV=120×93 mm, matrix=192×150 (0.625 mm in-plane resolution), slice thickness=0.6 mm, and 36 image slices. […] Following imaging, animals were sacrificed and liver tissue was subjected to pathologic scoring of fibrosis and analyzed for hydroxyproline content. […]
Liver fibrosis was detected by MRI by measuring the change in liver R1 after injection of COMPOUND ID NO. […]

Kd [1]: 21.1 µM
SMILES: CC(C)C[C@H](NC(=O)[C@@H]1CSSC[C@H](NC(=O)[C@H](Cc2c[nH]cn2)NC(=O)[C@H](Cc2c[nH]c3ccccc23)NC(=O)[C@H](CCCCNC(=O)CC[C@H](C(=O)O)N2CCN(CC(=O)O)CCN(CC(=O)O)CCN(CC(=O)O)CC2)NC(=O)CNC(=O)CC[C@H](C(=O)O)N2CCN(CC(=O)O)CCN(CC(=O)O)CCN(CC(=O)O)CC2)C(=O)N[C@@H]([C@@H](C)O)C(=O)N[C@@H]([C@@H](C)O)C(=O)N[C@@H](CCCCNC(=O)CC[C@H](C(=O)O)N2CCN(CC(=O)O)CCN(CC(=O)O)CCN(CC(=O)O)CC2)C(=O)N[C@@H](Cc2ccccc2)C(=O)N2CCC[C@H]2C(=O)N[C@@H](Cc2c[nH]cn2)C(=O)N[C@@H](Cc2c[nH]cn2)C(=O)N[C@@H](Cc2ccc(O)cc2)C(=O)N1)C(=O)N[C@@H](Cc1ccc(O)cc1)C(=O)N[C@@H](Cc1ccc(-c2ccccc2)cc1)C(N)=O [Compound ID No. 1]
area under the CNR vs time curve (liver) (liver fibrosis [2]; CCl4 treated mice): 1447±192
area under the CNR vs time curve (liver) (liver fibrosis [2]; vehicle (olive oil) treated control mice given the probe): 889±173
ΔR1 (change in liver R1 after injection) (liver fibrosis [3]; BDL animals, 19 days after ligation): 0.49 ± 0.22 s⁻¹
ΔR1 (change in liver R1 after injection) (liver fibrosis [3]; sham animals): 0.15 ± 0.14 s⁻¹
